# In ChEMBL document CHEMBL1153336, “Cytotoxicity of cardenolides and cardenolide glycosides from Asclepias curassavica” (Bioorg Med Chem Lett, 2009):
# How the values were obtained:
# HepG2 = test: Cytotoxicity against human HepG2 cells by MTT assay; format: functional, cell-based
# Raji = test: Cytotoxicity against human Raji cells by MTT assay; format: functional, cell-based
Structure (SMILES),IC50 (HepG2) [µM],IC50 (Raji) [µM]
C[C@@H]1C[C@H](O)[C@]2(O)O[C@@H]3C[C@@]4(C=O)[C@@H](CC[C@@H]5[C@@H]4C[C@@H](O)[C@]4(C)[C@@H](C6=CC(=O)OC6)CC[C@]54O)C[C@H]3O[C@@H]2O1,0.69,1.46
C[C@]12CC[C@H]3[C@@H](CC[C@H]4C[C@@H](O)[C@H](O)C[C@@]43C=O)[C@@]1(O)CC[C@@H]2C1=CC(=O)OC1 [CALOTROPAGENIN],56.6,24.3
C[C@@H]1C[C@H](O)[C@]2(O)O[C@@H]3C[C@@]4(C=O)[C@@H](CC[C@@H]5[C@@H]4CC[C@]4(C)[C@@H](C6=CC(=O)OC6)CC[C@]54O)C[C@H]3O[C@@H]2O1 [CALOTROPIN],0.04,0.02
C[C@]12CC[C@H]3[C@@H](CC[C@H]4C[C@@H](O)CC[C@@]43CO)[C@@]1(O)CC[C@@H]2C1=CC(=O)OC1 [COROGLAUCIGENIN],6.7,0.14
C[C@@H]1CC(=O)[C@]2(O)O[C@@H]3C[C@@]4(C=O)[C@@H](CC[C@@H]5[C@@H]4CC[C@]4(C)[C@@H](C6=CC(=O)OC6)CC[C@]54O)C[C@H]3O[C@@H]2O1 [USCHARIDIN],0.38,0.02
CC(=O)O[C@H]1C[C@@H](C)O[C@H]2O[C@@H]3C[C@@H]4CC[C@@H]5[C@H](CC[C@]6(C)[C@@H](C7=CC(=O)OC7)CC[C@]56O)[C@@]4(C=O)C[C@H]3O[C@]21O [ASCLEPIN],0.02,0.02
C[C@]12CC[C@H](O[C@@H]3O[C@H](CO)[C@@H](O)[C@H](O)[C@H]3O)C[C@@H]1CC[C@@H]1[C@@H]2CC[C@]2(C)[C@@H](C3=CC(=O)OC3)CC[C@]12O [DESGLUCOUZARIN],8.53,0.75
CO[C@]12CC[C@@]3(CO1)[C@@H](CC[C@@H]1[C@@H]3C[C@@H](O)[C@]3(C)[C@@H](C4=CC(=O)OC4)CC[C@]13O)C2,89.9,64.7
C[C@]12[C@H](O)C[C@H]3[C@@H](CC[C@H]4C[C@@H](O)CC[C@@]43CO)[C@@]1(O)CC[C@@H]2C1=CC(=O)OC1,5.17,14.6
CC(=O)O[C@H]1C[C@@H](C)O[C@H]2O[C@@H]3C[C@@H]4CC[C@@H]5[C@H](CC[C@]6(C)[C@@H](C7=CC(=O)OC7)[C@H](OC(C)=O)C[C@]56O)[C@@]4(C=O)C[C@H]3O[C@]21O,0.76,3.21
CC(=O)O[C@H]1C[C@@H](C)O[C@H]2O[C@@H]3C[C@@H]4CC[C@@H]5[C@H](CC[C@]6(C)[C@@H](C7=CC(=O)OC7)[C@H](O)C[C@]56O)[C@@]4(C=O)C[C@H]3O[C@]21O,3.03,0.05
CC(=O)O[C@@H]1C[C@]2(O)[C@@H]3CC[C@H]4C[C@H]5O[C@@H]6O[C@H](C)C[C@H](O)[C@]6(O)O[C@@H]5C[C@]4(C=O)[C@H]3CC[C@]2(C)[C@H]1C1=CC(=O)OC1,1.34,3.54
COc1cc(/C=C/C(=O)OC[C@H]2O[C@@H](O[C@H]3CC[C@@]4(C)[C@@H](CC[C@@H]5[C@@H]4CC[C@]4(C)[C@@H](C6=CC(=O)OC6)CC[C@]54O)C3)[C@H](O)[C@@H](O)[C@@H]2O)ccc1O,> 100,41.1
